# From PMC7827406, “Structure–Activity Relationship (SAR) Study of Spautin-1 to Entail the Discovery of Novel NEK4 Inhibitors” (International Journal of Molecular Sciences, 2021)
# Where two headings read alike, the source gives them in different places.
# Columns and labels:
# Experiment in all cases: biochemical
# Set-up in all cases: Eurofins KinaseProfiler full panel at Km ATP, residual kinase activity (%) relative to DMSO
# [1] = target: Ret(V804M)(h) (Homo sapiens, UniProt P07949, V804M)
# In short: (§1)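 Two 10 µM single-concentration screens were run: a competition-binding screen, in which DNA-tagged kinase bound to immobilized ligands was quantified by qPCR, and a radiometric activity panel at Km ATP. Each is expressed as residual kinase activity (%).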
# [2] = target: T1, CHK2(h) (Homo sapiens, UniProt O96017)
# T1 construct: gene CHEK2
# In short: as §1
# [3] = target: T2, HRI(h) (Homo sapiens, UniProt Q9BQI3)
# T2 construct: gene EIF2AK1
# In short: as §1
# [4] = target: Syk(h) (Homo sapiens, UniProt P43405)
# In short: as §1
# [5] = target: T3, MSK1(h) (Homo sapiens, UniProt O75582)
# T3 construct: gene RPS6KA5
# In short: as §1
# [6] = target: FGFR4(h) (Homo sapiens, UniProt P22455)
# In short: as §1
# [7] = target: T4, TrkC(h) (Homo sapiens, UniProt Q16288)
# T4 construct: gene NTRK3
# In short: as §1
# [8] = target: T5, Pim-1(h) (Homo sapiens, UniProt P11309)
# T5 construct: gene PIM1
# In short: as §1
# [9] = target: MELK(h) (Homo sapiens, UniProt Q14680)
# In short: as §1
# [10] = target: T6, NEK2(h) (Homo sapiens, UniProt P51955)
# T6 sequence (P51955 1-445): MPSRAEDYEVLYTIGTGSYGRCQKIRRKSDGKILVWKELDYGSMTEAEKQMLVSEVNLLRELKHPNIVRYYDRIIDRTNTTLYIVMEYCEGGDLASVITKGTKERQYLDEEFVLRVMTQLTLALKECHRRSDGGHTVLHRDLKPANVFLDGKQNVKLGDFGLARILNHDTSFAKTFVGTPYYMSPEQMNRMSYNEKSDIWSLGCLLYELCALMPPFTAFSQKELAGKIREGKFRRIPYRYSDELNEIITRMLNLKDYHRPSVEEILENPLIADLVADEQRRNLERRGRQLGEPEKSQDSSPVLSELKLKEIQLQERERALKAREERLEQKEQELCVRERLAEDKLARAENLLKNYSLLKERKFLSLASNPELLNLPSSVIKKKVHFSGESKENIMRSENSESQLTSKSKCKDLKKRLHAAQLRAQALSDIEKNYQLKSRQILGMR
# In short: as §1
# [11] = target: Wee1(h) (Homo sapiens, UniProt P30291)
# In short: as §1
# [12] = target: CLK1(h) (Homo sapiens, UniProt P49759)
# In short: as §1
# [13] = target: SRPK2(h) (Homo sapiens, UniProt P78362)
# In short: as §1
# [14] = target: T7, MINK(h) (Homo sapiens, UniProt Q8N4C8)
# T7 construct: gene MINK1
# In short: as §1
# [15] = read-out: Residual activity (%) Spautin-1 5aa
# [16] = read-out: Residual activity (%) 5as
# [17] = read-out: Residual activity (%) 5at
# [18] = read-out: Residual activity (%) 5ay
# FGFR4(h), sequence (P22455 whole entry): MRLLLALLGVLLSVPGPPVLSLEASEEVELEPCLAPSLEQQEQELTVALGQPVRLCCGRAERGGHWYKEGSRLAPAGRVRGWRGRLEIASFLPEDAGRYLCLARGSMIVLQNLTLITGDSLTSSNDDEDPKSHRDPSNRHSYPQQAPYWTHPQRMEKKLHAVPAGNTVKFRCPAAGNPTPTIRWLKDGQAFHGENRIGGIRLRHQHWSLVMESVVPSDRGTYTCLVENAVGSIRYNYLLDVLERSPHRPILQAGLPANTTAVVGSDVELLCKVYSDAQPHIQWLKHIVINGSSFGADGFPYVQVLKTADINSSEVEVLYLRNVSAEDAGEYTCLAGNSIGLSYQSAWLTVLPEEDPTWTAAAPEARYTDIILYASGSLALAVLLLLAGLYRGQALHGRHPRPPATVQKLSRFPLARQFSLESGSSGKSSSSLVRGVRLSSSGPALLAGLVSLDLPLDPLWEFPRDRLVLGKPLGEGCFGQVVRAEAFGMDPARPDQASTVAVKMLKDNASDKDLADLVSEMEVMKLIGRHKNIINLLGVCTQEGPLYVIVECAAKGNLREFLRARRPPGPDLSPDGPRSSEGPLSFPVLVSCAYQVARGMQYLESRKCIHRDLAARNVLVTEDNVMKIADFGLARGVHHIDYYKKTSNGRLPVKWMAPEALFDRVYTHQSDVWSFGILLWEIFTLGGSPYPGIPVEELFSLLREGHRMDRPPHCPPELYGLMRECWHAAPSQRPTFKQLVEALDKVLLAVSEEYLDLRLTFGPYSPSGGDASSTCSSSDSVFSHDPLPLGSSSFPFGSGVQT
# SRPK2(h), sequence (P78362 whole entry): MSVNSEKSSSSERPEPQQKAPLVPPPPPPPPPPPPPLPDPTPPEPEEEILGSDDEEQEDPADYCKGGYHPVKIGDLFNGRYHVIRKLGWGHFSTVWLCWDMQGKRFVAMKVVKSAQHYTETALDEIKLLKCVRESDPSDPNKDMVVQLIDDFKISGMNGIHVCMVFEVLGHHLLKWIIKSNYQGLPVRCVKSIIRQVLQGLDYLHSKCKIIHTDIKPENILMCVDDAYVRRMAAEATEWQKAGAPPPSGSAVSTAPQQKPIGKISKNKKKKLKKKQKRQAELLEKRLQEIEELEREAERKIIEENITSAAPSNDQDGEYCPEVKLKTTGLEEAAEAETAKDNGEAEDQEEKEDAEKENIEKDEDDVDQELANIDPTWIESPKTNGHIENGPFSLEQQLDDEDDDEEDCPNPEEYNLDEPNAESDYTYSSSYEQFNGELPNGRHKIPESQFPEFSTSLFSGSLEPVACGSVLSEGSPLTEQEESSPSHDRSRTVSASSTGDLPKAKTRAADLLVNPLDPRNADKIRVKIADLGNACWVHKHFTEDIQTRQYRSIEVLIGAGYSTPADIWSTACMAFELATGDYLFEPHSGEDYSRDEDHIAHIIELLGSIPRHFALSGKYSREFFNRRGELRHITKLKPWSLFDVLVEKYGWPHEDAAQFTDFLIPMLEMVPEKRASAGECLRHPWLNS
# T7 sequence (Q8N4C8 whole entry): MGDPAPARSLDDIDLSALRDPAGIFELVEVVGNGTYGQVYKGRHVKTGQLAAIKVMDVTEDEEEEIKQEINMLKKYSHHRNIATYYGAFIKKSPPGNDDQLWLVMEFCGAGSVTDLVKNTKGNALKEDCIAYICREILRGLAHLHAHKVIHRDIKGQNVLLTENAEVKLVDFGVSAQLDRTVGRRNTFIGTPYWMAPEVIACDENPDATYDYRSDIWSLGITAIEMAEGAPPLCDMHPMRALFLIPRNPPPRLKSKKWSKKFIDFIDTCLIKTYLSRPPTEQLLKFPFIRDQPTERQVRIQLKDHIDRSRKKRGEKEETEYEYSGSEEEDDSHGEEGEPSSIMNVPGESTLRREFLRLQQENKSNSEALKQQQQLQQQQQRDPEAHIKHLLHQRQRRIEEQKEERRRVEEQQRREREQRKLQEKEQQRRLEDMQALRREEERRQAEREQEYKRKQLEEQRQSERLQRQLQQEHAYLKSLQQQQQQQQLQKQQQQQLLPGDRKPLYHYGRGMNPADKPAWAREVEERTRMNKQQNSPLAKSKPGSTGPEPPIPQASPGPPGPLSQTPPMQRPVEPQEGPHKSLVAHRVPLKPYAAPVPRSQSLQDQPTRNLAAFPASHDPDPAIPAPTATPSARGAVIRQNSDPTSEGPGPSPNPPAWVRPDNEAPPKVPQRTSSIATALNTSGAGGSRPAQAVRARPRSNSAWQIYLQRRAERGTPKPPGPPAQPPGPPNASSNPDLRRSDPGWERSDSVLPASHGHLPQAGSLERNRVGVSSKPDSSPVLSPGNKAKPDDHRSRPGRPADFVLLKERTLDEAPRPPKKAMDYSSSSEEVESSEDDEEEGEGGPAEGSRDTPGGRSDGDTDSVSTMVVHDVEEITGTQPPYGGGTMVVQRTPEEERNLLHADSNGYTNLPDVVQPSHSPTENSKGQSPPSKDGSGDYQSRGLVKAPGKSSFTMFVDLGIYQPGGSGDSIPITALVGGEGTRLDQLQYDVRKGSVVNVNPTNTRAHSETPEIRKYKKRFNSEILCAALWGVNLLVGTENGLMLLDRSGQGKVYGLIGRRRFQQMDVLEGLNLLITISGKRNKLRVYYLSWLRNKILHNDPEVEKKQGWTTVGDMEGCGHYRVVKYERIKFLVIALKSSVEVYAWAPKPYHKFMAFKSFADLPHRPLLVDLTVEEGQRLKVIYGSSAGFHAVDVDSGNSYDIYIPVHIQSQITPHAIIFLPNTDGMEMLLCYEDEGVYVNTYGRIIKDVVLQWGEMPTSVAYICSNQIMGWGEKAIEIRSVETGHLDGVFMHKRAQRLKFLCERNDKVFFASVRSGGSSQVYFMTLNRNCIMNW
# T4 sequence (Q16288 whole entry): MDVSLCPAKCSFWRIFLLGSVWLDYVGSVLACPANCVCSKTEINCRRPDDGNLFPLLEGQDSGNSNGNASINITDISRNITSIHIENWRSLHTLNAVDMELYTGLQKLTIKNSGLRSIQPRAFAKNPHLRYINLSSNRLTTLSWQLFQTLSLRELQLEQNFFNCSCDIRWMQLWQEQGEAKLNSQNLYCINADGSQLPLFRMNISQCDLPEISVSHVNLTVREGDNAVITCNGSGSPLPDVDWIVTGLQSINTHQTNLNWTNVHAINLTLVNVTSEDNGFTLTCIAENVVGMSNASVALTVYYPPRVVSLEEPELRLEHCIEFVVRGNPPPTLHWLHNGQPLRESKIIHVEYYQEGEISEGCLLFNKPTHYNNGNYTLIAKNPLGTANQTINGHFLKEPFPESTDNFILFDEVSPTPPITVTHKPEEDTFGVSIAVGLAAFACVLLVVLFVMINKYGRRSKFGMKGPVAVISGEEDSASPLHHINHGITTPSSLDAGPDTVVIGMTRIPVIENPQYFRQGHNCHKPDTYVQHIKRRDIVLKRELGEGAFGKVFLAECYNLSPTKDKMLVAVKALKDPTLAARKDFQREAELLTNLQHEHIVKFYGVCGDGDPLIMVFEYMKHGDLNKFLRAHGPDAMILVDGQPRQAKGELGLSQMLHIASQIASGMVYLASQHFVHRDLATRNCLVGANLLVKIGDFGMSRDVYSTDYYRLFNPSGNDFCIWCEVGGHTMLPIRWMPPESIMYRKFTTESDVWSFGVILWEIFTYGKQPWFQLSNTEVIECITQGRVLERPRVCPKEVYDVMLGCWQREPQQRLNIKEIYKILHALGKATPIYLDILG
# T1 sequence (O96017 whole entry): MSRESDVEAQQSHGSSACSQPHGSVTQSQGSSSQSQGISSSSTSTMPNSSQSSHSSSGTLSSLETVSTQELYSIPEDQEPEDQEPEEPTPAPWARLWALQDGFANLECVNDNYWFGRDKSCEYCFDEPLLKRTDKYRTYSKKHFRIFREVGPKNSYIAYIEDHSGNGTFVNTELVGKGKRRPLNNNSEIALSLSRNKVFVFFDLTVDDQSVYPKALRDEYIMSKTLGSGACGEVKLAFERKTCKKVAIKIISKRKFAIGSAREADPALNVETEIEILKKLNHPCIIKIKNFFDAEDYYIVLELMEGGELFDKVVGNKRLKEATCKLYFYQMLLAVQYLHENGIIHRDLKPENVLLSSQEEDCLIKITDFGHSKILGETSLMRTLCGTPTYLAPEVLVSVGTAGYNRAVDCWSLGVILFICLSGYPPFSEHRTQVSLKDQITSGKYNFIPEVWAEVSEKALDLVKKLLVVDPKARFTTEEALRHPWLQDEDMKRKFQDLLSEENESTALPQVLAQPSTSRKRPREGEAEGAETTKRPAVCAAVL
# CLK1(h), sequence (P49759 whole entry): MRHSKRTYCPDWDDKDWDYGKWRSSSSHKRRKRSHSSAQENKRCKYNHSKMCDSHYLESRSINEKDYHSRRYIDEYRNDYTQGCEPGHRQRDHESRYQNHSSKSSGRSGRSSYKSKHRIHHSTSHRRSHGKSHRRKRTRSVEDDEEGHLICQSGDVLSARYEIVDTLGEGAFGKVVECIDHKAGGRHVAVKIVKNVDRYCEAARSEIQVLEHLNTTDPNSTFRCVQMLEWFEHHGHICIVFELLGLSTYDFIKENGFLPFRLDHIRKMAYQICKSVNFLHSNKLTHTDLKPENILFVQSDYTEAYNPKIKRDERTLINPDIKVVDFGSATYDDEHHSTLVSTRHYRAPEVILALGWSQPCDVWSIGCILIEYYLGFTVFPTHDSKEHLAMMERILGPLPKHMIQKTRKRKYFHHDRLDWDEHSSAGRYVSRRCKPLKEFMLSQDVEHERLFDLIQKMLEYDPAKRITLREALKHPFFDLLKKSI
# T5 sequence (P11309 whole entry): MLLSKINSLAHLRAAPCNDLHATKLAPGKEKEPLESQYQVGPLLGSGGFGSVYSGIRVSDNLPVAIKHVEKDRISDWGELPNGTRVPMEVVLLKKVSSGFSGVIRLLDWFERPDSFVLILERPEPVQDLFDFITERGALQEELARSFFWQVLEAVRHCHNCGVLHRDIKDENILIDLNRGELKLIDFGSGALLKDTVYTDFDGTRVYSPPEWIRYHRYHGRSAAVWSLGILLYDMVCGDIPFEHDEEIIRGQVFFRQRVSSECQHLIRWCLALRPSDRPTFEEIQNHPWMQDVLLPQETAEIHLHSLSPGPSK
compound,measurement,setting,value
"Fc1ccc(CNc2ncnc3ccc(F)cc23)cc1 [5aa, 6-Fluoro-N-(4-fluorobenzyl)-4-Quinazolinamine]",remaining activity at 10 µM,[1]; [15],99%
same,remaining activity at 10 µM,[2]; [15],67%
same,remaining activity at 10 µM,[3]; [15],96%
same,remaining activity at 10 µM,[4]; [15],113%
same,remaining activity at 10 µM,[5]; [15],90%
same,remaining activity at 10 µM,[6]; [15],99%
same,remaining activity at 10 µM,[7]; [15],111%
same,remaining activity at 10 µM,[8]; [15],66%
same,remaining activity at 10 µM,[9]; [15],86%
same,remaining activity at 10 µM,[10]; [15],91%
same,remaining activity at 10 µM,[11]; [15],109%
same,remaining activity at 10 µM,[12]; [15],23%
same,remaining activity at 10 µM,[13]; [15],80%
same,remaining activity at 10 µM,[14]; [15],86%
"Fc1ccc(CCNc2ncnc3ccc(F)cc23)cc1 [5as, 6-Fluoro-N-[2-(4-Fluorophenyl)Ethyl]-4-Quinazolinamine]",remaining activity at 10 µM,[1]; [16],85%
same,remaining activity at 10 µM,[2]; [16],73%
same,remaining activity at 10 µM,[3]; [16],99%
same,remaining activity at 10 µM,[4]; [16],84%
same,remaining activity at 10 µM,[5]; [16],70%
same,remaining activity at 10 µM,[6]; [16],93%
same,remaining activity at 10 µM,[7]; [16],104%
same,remaining activity at 10 µM,[8]; [16],73%
same,remaining activity at 10 µM,[9]; [16],90%
same,remaining activity at 10 µM,[10]; [16],88%
same,remaining activity at 10 µM,[11]; [16],114%
same,remaining activity at 10 µM,[12]; [16],28%
same,remaining activity at 10 µM,[13]; [16],87%
same,remaining activity at 10 µM,[14]; [16],88%
"Fc1ccc2ncnc(NCCc3ccc(Cl)cc3)c2c1 [5at, N-[2-(4-Chlorophenyl)Ethyl]-6-Fluoro-4-Quinazolinamine]",remaining activity at 10 µM,[1]; [17],73%
same,remaining activity at 10 µM,[2]; [17],75%
same,remaining activity at 10 µM,[3]; [17],101%
same,remaining activity at 10 µM,[4]; [17],92%
same,remaining activity at 10 µM,[5]; [17],79%
same,remaining activity at 10 µM,[6]; [17],96%
same,remaining activity at 10 µM,[7]; [17],97%
same,remaining activity at 10 µM,[8]; [17],70%
same,remaining activity at 10 µM,[9]; [17],73%
same,remaining activity at 10 µM,[10]; [17],95%
same,remaining activity at 10 µM,[11]; [17],89%
same,remaining activity at 10 µM,[12]; [17],28%
same,remaining activity at 10 µM,[13]; [17],104%
same,remaining activity at 10 µM,[14]; [17],89%
"COc1ccc2ncnc(Nc3cccc(F)c3)c2c1 [5ay, N-(3-Fluorophenyl)-6-Methoxy-4-Quinazolinamine]",remaining activity at 10 µM,[1]; [18],102%
same,remaining activity at 10 µM,[2]; [18],67%
same,remaining activity at 10 µM,[3]; [18],99%
same,remaining activity at 10 µM,[4]; [18],110%
same,remaining activity at 10 µM,[5]; [18],74%
same,remaining activity at 10 µM,[6]; [18],98%
same,remaining activity at 10 µM,[7]; [18],114%
same,remaining activity at 10 µM,[8]; [18],39%
same,remaining activity at 10 µM,[9]; [18],95%
same,remaining activity at 10 µM,[10]; [18],92%
same,remaining activity at 10 µM,[11]; [18],102%
same,remaining activity at 10 µM,[12]; [18],14%
same,remaining activity at 10 µM,[13]; [18],80%
same,remaining activity at 10 µM,[14]; [18],67%
